Molecular target: one or more of HDAC4, HDAC5, HDAC6, HDAC7, HDAC8, HDAC9 and HDAC11
Experiment: Inhibition of histone deacetylase enzymatic activity (fluorogenic Boc-Lys(Ac)-AMC / Boc-Lys(trifluoroacetyl)-AMC substrate)
Format: biochemical
Conditions: against one or more of HDAC4, HDAC5, HDAC6, HDAC7, HDAC8, HDAC9 and HDAC11
Description: Inhibition of HDAC-1,2,3,6 and 8
The following protocol is used to assay the compounds of the invention. In the assay, the buffer used is 25 mM HEPES, pH 8.0, 137 mM NaCl, 2.7 mM KCl, 1 mM MgCl2 and the substrate is Boc-Lys(Ac)-AMC in a 50 mM stock solution in DMSO. The enzyme stock solution is 4.08 μg/mL in buffer.
The compounds are pre-incubated (2 μl, in DMSO diluted to […] in buffer for transfer to assay plate) with enzyme (20 μL of 4.08 μg/mL) for 10 minutes at room temperature (35 μL pre-incubation volume). The mixture is pre-incubated for 5 minutes at room temperature. The reaction is started by bringing the temperature to 37° C. and adding 15 μL substrate. Total reaction volume is 50 μL. The reaction is stopped after 20 minutes by addition of 50 μL developer, prepared as directed by Biomol (FLUOR DE LYS™ developer, Cat. # KI-105). A plate is incubated in the dark for 10 minutes at room temperature before reading (λEx=360 nm, λEm=470 nm, Cutoff filter at 435 nm).
Inhibition of Class II HDAC and HDAC-11
A 30 mM stock of Boc-Lys(trifluoroacetyl)-AMC substrate is prepared in DMSO. 2 μL test compound in DMSO is diluted to 50 μL in buffer (25 mM HEPES, pH 8.0, 137 mM NaCl, 2.7 mM KCl, 1 mM MgCl2, 0.1% BSA) and pre-incubated with HDAC enzyme (30 μL of a final enzyme concentration of 0.1-0.2 nM) for 10 minutes at room temperature. Reaction is started by adding 18 μL Boc-Lys(trifluoroacetyl)-AMC substrate and incubating at 37° C. for 20-30 minutes. The reaction is stopped by adding 50 μL trypsin (1 mg/mL) and a known HDAC inhibitor. The plate is then incubated in the dark for 20 minutes at room temperature and read with Ex=360 nm, Em=470 nm, cutoff filter at 435 nm.

Q: Which IC50 does the source give for `O=C(NO)c1sc(C2CCN(C(=O)c3ccccc3)CC2)nc1-c1ccccc1` [Compound 133, 2-(1-benzoylpiperidin-4-yl)-N-hydroxy-4-phenylthiazole-5-carboxamide] here?
A: < 250 nM

Q: With `COc1cccc(-c2cc(F)ccc2C(=O)NO)c1` [Compound 98, 5-fluoro-N-hydroxy-3′-methoxybiphenyl-2-carboxamidc] as the molecule, how does the IC50 read?
A: 500 to 750 nM

Q: Which IC50 does the source give for `O=C(NO)c1sc(Cc2ccccc2)cc1-c1ccccc1` [Compound 130, 5-benzyl-N-hydroxy-3-phenylthiophene-2-carboxamide] here?
A: < 250 nM

Q: With `O=C(NO)c1ccccc1-c1cccc([N+](=O)[O-])c1` [Compound 26, N-hydroxy-3′-nitrobiphenyl-2-carboxamide] as the molecule, how does the IC50 read?
A: 750 to 5000 nM

Q: `O=C(NO)c1sc(C(c2ccccc2)c2ccccc2)nc1-c1ccccc1` [Compound 150, 2-benzhydryl-N-hydroxy-4-phenylthiazole-5-carboxamide] was tested. Which IC50 did it give?
A: < 250 nM

Q: For `O=C(NO)c1sc(-c2ccncc2)nc1-c1ccccc1` [Compound 122, N-hydroxy-4-phenyl-2-(pyridin-4-yl)thiazole-5-carboxamide], which IC50 is on record?
A: < 250 nM

Q: How did the IC50 turn out when `COc1cccc(-c2cc(C)ccc2C(=O)NO)c1` [Compound 33, N-hydroxy-3′-methoxy-5-mcthylbiphenyl-2-carboxamide] was run?
A: 500 to 750 nM

Q: `O=C(NO)c1sc(C2CCN(S(=O)(=O)c3ccccc3)CC2)nc1-c1ccccc1` [Compound 151, N-hydroxy-4-phenyl-2-(1-(phenylsulfonyl)piperidin-4-yl)thiazole-5-carboxamide] was tested. Which IC50 did it give?
A: < 250 nM

Q: For `O=C(NCc1ccccc1)OCc1cc(-c2ccccc2)c(C(=O)NO)s1` [Compound 180, (5-(hydroxycarbamoyl)-4-phenylthiophen-2-yl)methyl benzylcarbamate], which IC50 is on record?
A: < 250 nM

Q: For `O=C(Nc1ccc2sc(C(=O)NO)c(-c3ccccc3)c2c1)OCc1ccccc1` [Compound 131, benzyl 2-(hydroxycarbamoyl)-3-phenylbenzo[b] thiophen-5-ylcarbamate], which IC50 is on record?
A: 500 to 750 nM

Q: For `O=C(NO)c1sc(-c2ccccc2)cc1-c1ccccc1` [Compound 86, N-hydroxy-3,5-diphenylthiophene-2-carboxamide], which IC50 is on record?
A: < 250 nM

Q: `COc1ccc(-c2nc(-c3ccc(F)cc3)c(C(=O)NO)s2)cc1` [Compound 80, 4-(4-fluorophenyl)-N-hydroxy-2-(4-methoxyphenyl)thiazole-5-carboxamide] was tested. Which IC50 did it give?
A: < 250 nM

Q: With `O=C(NO)c1ccc(CN2C(=O)c3ccccc3Oc3ccccc32)cc1-c1ccccc1` [Compound 162, N-hydroxy-5-((11-oxodibenzo[b,f] [1,4]oxazepin-10(11H)-yl)methyl)biphenyl-2-carboxamide] as the molecule, how does the IC50 read?
A: < 250 nM

From US8673911B2, “Inhibitors of histone deacetylase” (MethylGene Inc., priority 2007, dated 2014)
